Assay results as given in patent publication US9492422B2, “Therapeutic or prophylactic agent for diabetes” (Toray Industries, Inc., priority 2009, dated 2016).
Structures can show the parent of a compound that is named as a salt.

Tests used:
Assay type in all cases: in vivo
[1] = Body weight before and after drug administration in KKAy mice; details: male KKAy mice; for Change in body weight compared to the value before drug administration: paired t-test; for Body weight, After administration: at final administration; for Body weight, After administration / Body weight, Before administration: mean ± standard error; for Body weight, Before administration: baseline, day before start of dosing
Text: (§1) For the experiment, male KKAy mice (CLEA Japan, Inc.) were used. KKAy mice show obesity and high blood glucose from 7 or 8 weeks old, and are commonly used as model mice for type 2 diabetes. The KKAy mice were purchased when they were 5 weeks old, and, from immediately thereafter, fed with CMF feed (Oriental Yeast Co., Ltd.) for 3 weeks under free food/water intake conditions, before being subjected to the experiment. For continuous subcutaneous administration of a solvent (physiological saline, 6 μL/day) or BPS (1 mg/kg/day, commercially available product from Toray Industries, Inc.), a minipump for sustained release (Alzet micro osmotic pump model 1002, Alzet osmotic pumps company) was subcutaneously placed in each KKAy mouse. The continuous administration of physiological saline or BPS was carried out until the end of the experiment. From 3 days after the placement (beginning of the subcutaneous continuous administration), oral administration of a solvent (0.5% methyl cellulose (MC) solution, 10 mL/kg) or pioglitazone hydrochloride (product synthesized in Toray Industries, Inc.) was started. Pioglitazone hydrochloride was administered as a suspension in 0.5% MC solution. The 0.5% MC solution and pioglitazone hydrochloride were administered for 10 days, during which the administration was carried out once per day in the evening. The mice were divided into the following experimental groups: • (1) Control group (n=8): physiological saline (6 μL/day)+0.5% MC solution (10 mL/kg) • (2) BPS group (n=6): BPS (1 mg/kg/day)+0.5% MC solution (10 mL/kg) • (3) Pioglitazone hydrochloride 3 mg group (n=6): physiological saline (6 μL/day)+pioglitazone hydrochloride (3 mg/kg) • (4) BPS/pioglitazone hydrochloride 3 mg-combined-use group (n=6): BPS (1 mg/kg/day)+pioglitazone hydrochloride (3 mg/kg) • (5) Pioglitazone hydrochloride 30 mg group (n=6): physiological saline (6 μL/day)+pioglitazone hydrochloride (30 mg/kg).
(§2) The body weight and the casual blood glucose level were measured on the day before starting of the continuous administration of physiological saline or BPS (these correspond to the data shown in the “Before administration” columns in Tables 1 and 2). The body weight was measured when 0.5% MC solution or pioglitazone hydrochloride was finally administered, and the casual blood glucose level was measured about 18 hours after the final administration (these correspond to the data shown in the “After administration” columns in Tables 1 and 2). The casual blood glucose level was measured by collecting about 5 μL of blood from the tail vein and subjecting the blood to measurement with a simplified blood glucose meter (Medisense Precision Xceed, ABBOTT JAPAN Co., LTD.).

[2] = test system: KKAy mice; experiment: Glucose tolerance test after drug administration in KKAy mice; details: male KKAy mice; for ΔAUC0-120 (area under the Δblood glucose level-time curve, 0 to 120 minutes): oral glucose 1.5 g/kg after fasting, mean ± standard error, in mg·min/dL (unit assumed)
Description: For the experiment, male KKAy mice (CLEA Japan, Inc.) were used. […] Pioglitazone hydrochloride was administered as a suspension in 0.5% MC solution. […] The continuous administration of physiological saline or BPS was carried out until the end of the experiment. The experimental groups were as follows: • (1) Control group (n=6): physiological saline (6 μL/day)+0.5% MC solution (10 mL/kg) • (2) BPS group (n=5): BPS (1 mg/kg/day)+0.5% MC solution (10 mL/kg) • (3) Pioglitazone hydrochloride 3 mg group (n=5): physiological saline (6 μL/day)+pioglitazone hydrochloride (3 mg/kg) • (4) BPS/pioglitazone hydrochloride 3 mg-combined-use group (n=6): BPS (1 mg/kg/day)+pioglitazone hydrochloride (3 mg/kg) • (5) Pioglitazone hydrochloride 30 mg group (n=6): physiological saline (6 μL/day)+pioglitazone hydrochloride (30 mg/kg). […] The increase in the blood glucose level at each timing relative to the blood glucose level observed immediately before the administration of glucose (0 minute) was defined as Δblood glucose level. The length of time (minutes) after the administration of glucose was plotted along the abscissa and Δblood glucose level (mg/dL) was plotted along the ordinate, to calculate the area under the Δblood glucose level-time curve from 0 minute to 120 minutes (ΔAUC0-120).

[3] = test system: KKAy mice; experiment: Casual blood glucose level before and after drug administration in KKAy mice; details: male KKAy mice; for Casual blood glucose level, After administration: about 18 hours after final administration; for Casual blood glucose level, After administration / Casual blood glucose level, Before administration: mean ± standard error; for Casual blood glucose level, Before administration: baseline, day before start of dosing
Text: as §1, §2

[4] = BPS 1 mg/kg/day s.c. continuous and/or pioglitazone hydrochloride 3 mg/kg p.o. once daily 10 days
[5] = groups BPS 1 mg/kg/day s.c. continuous and/or pioglitazone hydrochloride 3 mg/kg p.o.
[6] = pioglitazone hydrochloride 30 mg/kg group
[7] = pioglitazone hydrochloride 30 mg/kg p.o. once daily 10 days
[8] = BPS 1 mg/kg/day s.c. continuous and/or pioglitazone hydrochloride 3 mg/kg p.o. once daily 20 days

SMILES | Change in body weight compared to the value before drug administration ([1]; BPS 1 mg/kg/day s.c. and/or pioglitazone hydrochloride 3 mg/kg p.o.) | Body weight, After administration [1, 4] [g] | Body weight, Before administration [1, 5] [g] | Body weight, Before administration [1, 6] [g] | Body weight, After administration [1, 7] [g] | Change in body weight compared to the value before drug administration ([1]; pioglitazone hydrochloride 30 mg/kg p.o.) | ΔAUC0-120 (area under the Δblood glucose level-time curve, 0 to 120 minutes) [2, 8] | ΔAUC0-120 (area under the Δblood glucose level-time curve, 0 to 120 minutes) ([2]; pioglitazone hydrochloride 30 mg/kg p.o. once daily 20 days) | Casual blood glucose level, After administration [3, 4] [mg/dL] | Casual blood glucose level, Before administration [3, 5] [mg/dL] | Casual blood glucose level, Before administration [3, 6] [mg/dL] | Casual blood glucose level, After administration [3, 7] [mg/dL] | Change in ΔAUC0-120 compared to the control group ([2]; glucose tolerance test, BPS 1 mg/kg/day s.c. and/or pioglitazone hydrochloride 3 mg/kg p.o.) | Change in casual blood glucose level compared to the value before drug administration ([3]; BPS 1 mg/kg/day s.c. and/or pioglitazone hydrochloride 3 mg/kg p.o., paired t-test)
CCc1ccc(CCOc2ccc(CC3SC(=O)NC3=O)cc2)nc1 (stereo not shown) [Pioglitazone hydrochloride, pioglitazone hydrochloride] | significant increase | 44.2 ± 1.3 | 41.7 ± 1.2 | 42.6 ± 1.1 | 46.7 ± 1.3 | significant increase | 23138 ± 4870 | 22461 ± 2157 | 452.8 ± 53.4 | 450.3 ± 15.4 | 437.7 ± 21.7 | 271.3 ± 16.9 |  | 
CC#CCC(C)[C@H](O)/C=C/[C@@H]1[C@H]2c3cccc(CCCC(=O)O)c3O[C@H]2C[C@H]1O (mixture of isomers) [BPS, beraprost sodium] |  | 42.3 ± 1.1 | 41.2 ± 0.8 |  |  |  | 18684 ± 3551 |  | 392.3 ± 28.9 | 493.0 ± 35.6 |  |  | no change | no change
